Our source for the IC50 values is patent publication US20240316017A1, “NOVEL PYRIDINE DERIVATIVE COMPOUND AS RON INHIBITOR” (LG CHEM, LTD., priority 2021, published 2024).

The target in assay [1] is cMET (Homo sapiens, UniProt P08581). Put plainly: Evaluation of inhibitory activity against MET (TR-FRET kinase assay). In kind it is biochemical. The following applies: cMET protein, TK peptide substrate. A digest of the protocol:
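Human cMET was used at 2 nM before mixing, in 50 mM HEPES pH 7.4, 20 mM MgCl2, 0.5 mM MnCl2, 0.05% BSA, 1 mM DTT. Compound (1 mM DMSO stock, 10-point 3-fold series) was preincubated with enzyme 20-30 min at RT. A 2× cocktail (5 uM TK peptide, 10 mM ATP) was added for 60 min, then EDTA stop, Eu-anti-phosphotyrosine TR-FRET (665/620 nm) and IC50.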

Assay [2] deals with RON (Homo sapiens, UniProt Q04912). Put plainly: Evaluation of inhibitory activity against RON (TR-FRET kinase assay). Format: biochemical. As to conditions: RON protein, ULight-labeled Poly GT substrate. A digest of the protocol:
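TR-FRET kinase assay with 0.4 nM RON (pre-dilution) in pH 7.4 HEPES buffer; compounds in 10-point 3-fold series, preincubated with enzyme 20–30 min at RT, then 1× of 2× cocktail (40 uM ULight-poly GT, 100 nM ATP) for 60 min. EDTA-stopped; Eu-anti-phosphotyrosine read at 620/665 nm; IC50 from curve fit.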

pIC50: −log10 of the molar value.

Chain of RON (Q04912 25-1400, species assumed): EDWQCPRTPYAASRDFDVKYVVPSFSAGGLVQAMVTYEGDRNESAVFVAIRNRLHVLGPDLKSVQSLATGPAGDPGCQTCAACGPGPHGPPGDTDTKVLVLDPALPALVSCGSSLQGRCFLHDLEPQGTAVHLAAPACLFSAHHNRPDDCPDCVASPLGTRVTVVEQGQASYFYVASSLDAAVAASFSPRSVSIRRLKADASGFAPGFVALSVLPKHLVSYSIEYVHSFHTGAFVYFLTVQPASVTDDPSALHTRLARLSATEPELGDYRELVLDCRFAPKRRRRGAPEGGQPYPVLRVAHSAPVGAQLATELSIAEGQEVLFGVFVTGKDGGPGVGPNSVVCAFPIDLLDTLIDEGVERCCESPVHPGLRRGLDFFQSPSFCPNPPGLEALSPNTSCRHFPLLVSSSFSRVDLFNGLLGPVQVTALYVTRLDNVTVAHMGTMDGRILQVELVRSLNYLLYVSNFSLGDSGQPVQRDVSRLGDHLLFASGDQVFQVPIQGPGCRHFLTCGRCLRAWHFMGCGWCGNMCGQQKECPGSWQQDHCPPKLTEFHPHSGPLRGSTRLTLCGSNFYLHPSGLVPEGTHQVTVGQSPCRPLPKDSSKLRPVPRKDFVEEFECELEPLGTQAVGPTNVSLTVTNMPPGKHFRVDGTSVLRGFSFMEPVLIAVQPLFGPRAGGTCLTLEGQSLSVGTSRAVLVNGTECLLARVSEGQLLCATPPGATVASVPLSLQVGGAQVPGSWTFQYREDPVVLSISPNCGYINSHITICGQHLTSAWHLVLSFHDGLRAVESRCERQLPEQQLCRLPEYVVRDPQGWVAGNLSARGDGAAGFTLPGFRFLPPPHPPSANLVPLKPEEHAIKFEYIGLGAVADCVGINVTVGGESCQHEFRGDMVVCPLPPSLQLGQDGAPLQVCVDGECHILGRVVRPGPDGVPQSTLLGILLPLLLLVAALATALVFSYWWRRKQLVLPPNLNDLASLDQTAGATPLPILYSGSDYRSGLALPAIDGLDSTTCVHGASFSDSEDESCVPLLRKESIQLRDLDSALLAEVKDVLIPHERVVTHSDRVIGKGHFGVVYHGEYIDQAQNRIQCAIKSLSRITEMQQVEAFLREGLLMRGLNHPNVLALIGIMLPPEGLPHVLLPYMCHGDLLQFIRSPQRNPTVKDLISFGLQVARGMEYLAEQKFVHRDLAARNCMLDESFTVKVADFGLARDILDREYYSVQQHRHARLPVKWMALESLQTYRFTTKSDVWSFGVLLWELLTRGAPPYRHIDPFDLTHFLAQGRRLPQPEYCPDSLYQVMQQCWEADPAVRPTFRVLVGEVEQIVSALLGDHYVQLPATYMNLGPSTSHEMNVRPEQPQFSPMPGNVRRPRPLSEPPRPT
Chain of cMET (P08581 25-1390): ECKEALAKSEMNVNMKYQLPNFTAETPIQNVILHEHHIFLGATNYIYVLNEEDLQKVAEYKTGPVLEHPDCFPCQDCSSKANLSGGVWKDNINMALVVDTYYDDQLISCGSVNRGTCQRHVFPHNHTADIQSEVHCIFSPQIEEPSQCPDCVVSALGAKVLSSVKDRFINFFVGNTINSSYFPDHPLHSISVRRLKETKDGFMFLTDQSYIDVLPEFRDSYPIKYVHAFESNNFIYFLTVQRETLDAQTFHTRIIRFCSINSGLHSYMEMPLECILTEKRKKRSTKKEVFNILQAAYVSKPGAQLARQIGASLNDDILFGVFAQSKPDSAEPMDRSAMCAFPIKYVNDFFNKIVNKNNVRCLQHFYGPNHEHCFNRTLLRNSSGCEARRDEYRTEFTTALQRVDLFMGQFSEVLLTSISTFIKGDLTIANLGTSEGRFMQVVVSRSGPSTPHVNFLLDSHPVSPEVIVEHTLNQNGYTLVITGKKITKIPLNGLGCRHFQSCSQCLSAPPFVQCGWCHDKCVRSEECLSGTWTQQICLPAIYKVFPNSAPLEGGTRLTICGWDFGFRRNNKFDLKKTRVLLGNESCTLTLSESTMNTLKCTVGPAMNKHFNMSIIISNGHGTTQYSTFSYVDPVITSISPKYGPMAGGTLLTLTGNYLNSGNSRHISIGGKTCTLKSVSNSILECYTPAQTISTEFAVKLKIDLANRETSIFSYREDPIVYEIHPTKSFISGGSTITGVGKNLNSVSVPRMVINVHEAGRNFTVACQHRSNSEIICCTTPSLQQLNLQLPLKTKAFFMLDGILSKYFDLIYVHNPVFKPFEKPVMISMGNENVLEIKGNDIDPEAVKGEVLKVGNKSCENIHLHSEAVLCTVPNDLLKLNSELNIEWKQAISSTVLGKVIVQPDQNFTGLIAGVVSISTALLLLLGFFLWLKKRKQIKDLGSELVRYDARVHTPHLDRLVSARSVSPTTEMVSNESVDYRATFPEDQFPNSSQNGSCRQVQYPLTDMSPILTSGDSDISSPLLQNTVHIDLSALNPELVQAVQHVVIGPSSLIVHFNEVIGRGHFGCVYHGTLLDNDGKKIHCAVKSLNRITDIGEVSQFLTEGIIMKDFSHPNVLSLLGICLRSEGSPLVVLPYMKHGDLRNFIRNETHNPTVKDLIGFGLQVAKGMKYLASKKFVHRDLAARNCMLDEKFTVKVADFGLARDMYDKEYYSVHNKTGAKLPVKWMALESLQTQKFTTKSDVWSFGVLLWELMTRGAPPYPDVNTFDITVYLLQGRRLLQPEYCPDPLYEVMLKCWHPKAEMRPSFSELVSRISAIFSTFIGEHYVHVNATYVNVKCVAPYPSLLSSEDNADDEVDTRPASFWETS

As for `Cc1c(C(=O)Nc2ccc(Oc3ccnc(N)c3Cl)c(F)c2)cnn1-c1ccccc1` [Example 3, N-(4-((2-amino-3-chloropyridin-4-yl)oxy)-3-fluorophenyl)-5-methyl-1-phenyl-1H-pyrazole-4-carboxamide], the pIC50 in assay [1] and in assay [2] was 6.30 to 7.30 each time.
With `Nc1nccc(Oc2ccc(NC(=O)c3cnn(-c4ccccc4)c3C(F)(F)F)cc2F)c1Cl` [Example 2, N-(4-((2-amino-3-chloropyridin-4-yl)oxy)-3-fluorophenyl)-1-phenyl-5-(trifluoromethyl)-1H-pyrazole-4-carboxamide], the pIC50 was 5.30 to 6.30 in assay [1] and greater than 7.30 in assay [2].
For the compound `Nc1cc(Oc2ccc(NC(=O)c3ncn(-c4ccccc4)c3C(F)(F)F)cc2F)ccn1` [Example 25], the negative-log IC50 (pIC50) was less than 5.30 in assay [1] and 6.30 to 7.30 in assay [2].
Take `Nc1nccc(Oc2ccc(NC(=O)c3cnn(-c4ccccc4)c3Cl)cc2F)c1Cl` [Example 18, N-(4-((2-amino-3-chloropyridin-4-yl)oxy)-3-fluorophenyl)-5-chloro-1-phenyl-1H-pyrazole-4-carboxamide]: the negative-log IC50 (pIC50) in assay [1] is 5.30 to 6.30; in assay [2] it was 6.30 to 7.30.
Regarding `Nc1nccc(Oc2ccc(NC(=O)c3cnn(C4CCCOC4)c3C(F)(F)F)cc2F)c1Cl` (stereo not drawn) [Example 8, N-(4-((2-amino-3-chloropyridin-4-yl)oxy)-3-fluorophenyl)-1-(tetrahydro-2H-pyran-3-yl)-5-(trifluoromethyl)-1H-pyrazole-4-carboxamide], the results for the pIC50 in assay [1] and in assay [2] were 5.30 to 6.30 and 6.30 to 7.30, respectively.
As to `Nc1nccc(Oc2ccc(NC(=O)c3onc(-c4ccccc4)c3C(F)(F)F)cc2F)c1Cl` [Example 38, N-(4-((2-amino-3-chloropyridin-4-yl)oxy)-3-fluorophenyl)-3-phenyl-4-(trifluoromethyl)isoxazole-5-carboxamide], the results for the negative-log IC50 (pIC50) in assay [1] and in assay [2] were less than 5.30 and 6.30 to 7.30, respectively.
